Earlier results as cited in patent US6969532B2, “Compounds inhibiting COX-2 and iNOS promoter activities” (priority 2000, dated 2005).

Tested on: human adenomatous polyposis
Conditions: randomized clinical trial

Cc1ccc(-c2cc(C(F)(F)F)nn2-c2ccc(S(N)(=O)=O)cc2)cc1 [Celebrex]
extent of polyp reduction: about 30%
